Publication PMC8296708, “The pan HDAC inhibitor Givinostat improves muscle function and histological parameters in two Duchenne muscular dystrophy murine models expressing different haplotypes of the LTBP4 gene” (Skeletal Muscle, 2021)

Key:
D2.B10 mice [1] = experiment: Grip strength test (FNmax) in D2.B10 mice; assay type: in vivo, mouse (D2.B10-Dmd^mdx/J); settings: for FNmax from day 62 onwards: Givinostat 5, 10 and 37.5 mg/kg, vs vehicle; for FNmax from day 62 onwards / FNmax from day 21 until days 49-62: prednisone 1 mg/kg i.p. weekly; for FNmax from day 21 until days 49-62: Givinostat 10 and 37.5 mg/kg
Description: (§1) For the efficacy studies, C57BL/10 J (Stock No: 000665) wild type (wt) and C57BL/10ScSn-Dmd^mdx/J (Stock No: 001801) 7–8-week-old male mice, DBA/2J wt (Stock No: 000671), and D2.B10-Dmd^mdx/J (Stock No: 013141) 6–7-week-old male mice were purchased from The Jackson Laboratories (Bar Harbor, Maine, USA). After 5 days of acclimatization in the animal facility, mice were randomized into different treatment groups based on their BW. C57BL/10J wt mice were assigned to the naive wt group (healthy mice that received no treatment, but were subjected to functional tests), whereas mdx mice were assigned to the following groups (9 mice/group; 4–5 mice/cage): naive mdx (mice that received no treatment, but were subjected to functional tests), vehicle (0.5% methylcellulose, p.o.), and Givinostat (0.1, 0.3, 1, 5, 10, 25, and 37.5 mg/kg, p.o.). DBA/2J mice were assigned to the naive wt group (healthy mice that received no treatment, but were subjected to functional tests), whereas D2.B10 mice were assigned to the following groups (12–13 mice/group; 4–5 mice/gage): vehicle (filtered tap water, p.o.), Givinostat (1, 5, 10, and 37.5 mg/kg, p.o.), prednisone 1 mg/kg, and Deflazacort 1 mg/kg (i.p.).
(§2) In the efficacy studies, Givinostat powder (ITF2357) was suspended in 0.5% methylcellulose (Sigma-Aldrich) and administered p.o. (by gavage) at the doses of 0.1, 0.3, 1, 5, 10, 25, and 37.5 mg/kg qdx5x15weeks (administration volume per mouse: 10 mL/kg) in mdx mice (see Additional Figure 1A). Vehicle-treated mdx mice received 0.5% methylcellulose suspension. Givinostat suspension was stored at + 4 °C, and it was freshly prepared every 7 days. Probably due to the impairment of their tongue and masticatory muscles, the oral gavage procedure turned out to be difficult to perform, and chronic treatment of D2.B10 mice by this route was considered to bear a high risk of damaging the esophagus. For this reason, Givinostat was administered in the drinking water. Givinostat was dissolved in filtered tap water and was administered in drinking water (throughout 24 h) for 105 days at the dose of 1, 5, 10, and 37.5 mg/kg/day, according to a daily estimate of water consumption of 4 ml/mouse/day. Water consumption was weekly monitored throughout the entire duration of the study weighing the bottle of each cage (maximum 4 mice per cage). Prednisone and Deflazacort powder (Sigma-Aldrich) was dissolved in 2% DMSO (Sigma-Aldrich) and diluted in sterile saline on injection days. Both drugs were administered weekly (for 15 weeks) by i.p. injection at the dose of 1 mg/kg in a volume of 10 mL/kg. Givinostat and steroid treatments started on days 7 and 9 of the experimental plan, respectively (see Additional Figure 1B). All mice were monitored daily and tolerability was evaluated on the basis of BW and clinical signs.
In both efficacy studies, the effectiveness of treatments was evaluated every week by measuring the forelimb strength by a grip strength meter (Ugo Basile SRL, Italy). BW of mdx (see Additional Figure 2) and D2.B10 mice (see Additional Figure 3) was also measured in order to normalize the absolute grip strength of each mouse with respect to its BW. The protocol provides 5 measurements for each mouse (the procedure was compliant with the standard operating procedures of TREAT–NMD Neuromuscular Network). The highest recorded value of maximal normalized strength (FNmax) obtained for each mouse at all the time points (from T0 to T15) was used for further analysis.
After taking baseline readings for behavioral assays (FNmax and distance run by the animals), mice were re-randomized based on these two parameters, also considering the previous randomization performed on their BW.
The grip strength and run to exhaustion tests were performed during the light-cycle phase, in the early hours of the morning (8:00–11:30 am). […]

D2.B10 mice [2] = experiment: Treadmill run to exhaustion test in D2.B10 mice; assay type: in vivo, mouse (D2.B10-Dmd^mdx/J); settings: for Effect on distance run, significance: Deflazacort, prednisone 1 mg/kg, lower doses of Givinostat
Description: as §1, §2
Run to exhaustion performance of mdx and D2.B10 mice was evaluated every 14 or 21 days, respectively, using a treadmill apparatus (Ugo Basile SRL, Italy). The exhaustion protocol consisted in an initially horizontal running at 5 m/min for 5 min after which the speed was increased 1 m/min every minute until exhaustion (the procedure was compliant with the standard operating procedures of TREAT–NMD Neuromuscular Network). […]
After taking baseline readings for behavioral assays (FNmax and distance run by the animals), mice were re-randomized based on these two parameters, also considering the previous randomization performed on their BW. […]

Row | SMILES | Lowest dose with significant effect on FNmax from day 21 to day 104 (D2.B10 mice [1]) [mg/kg] | Effect on FNmax (D2.B10 mice [1]; 1-37.5 mg/kg/day in drinking water) | Time interval of significant FNmax improvement (D2.B10 mice [1]; Deflazacort 1 mg/kg i.p. weekly, Givinostat 1 mg/kg) | FNmax from day 62 onwards (D2.B10 mice [1]) | FNmax from day 21 until days 49-62 (D2.B10 mice [1]) | Difference in FNmax, Givinostat 37.5 mg/kg vs Deflazacort (D2.B10 mice [1]; days 90 and 97, p < 0.05 and p < 0.01) | Dose of maximal efficacy on FNmax (D2.B10 mice [1]; drinking water) [mg/kg] | Significant differences in FNmax, Givinostat 37.5 mg/kg versus prednisone (D2.B10 mice [1]; p < 0.05) | Effect on distance run, significance (D2.B10 mice [2]) | Distance run (D2.B10 mice [2]; Givinostat top dose (37.5 mg/kg), day 105 (vehicle 296 ± 17 m)) [meters] | Time to exhaustion (D2.B10 mice [2]; highest dose, day 105) | Effect of steroid on FNmax in comparison (D2.B10 mice [1]; 1 mg/kg i.p. weekly, all the treatment period)
1 | CCN(CC)Cc1ccc2cc(COC(=O)Nc3ccc(C(=O)NO)cc3)ccc2c1 [Givinostat] | 10 | dose-dependent | from day 42 to days 90/104 | remained significantly elevated until day 104 | increased the FNmax of D2.B10-treated mice to that of wt healthy mice | a significant difference was also seen | 37.5 | observed only at days 90 and 97 | not statistically significant | 473 ± 22 | significantly prolonged the time to exhaustion | 
2 | C[C@]12C=CC(=O)C=C1CC[C@@H]1[C@@H]2C(=O)C[C@@]2(C)[C@H]1CC[C@]2(O)C(=O)CO [prednisone] |  |  |  | remained significantly elevated until day 104 | increased the FNmax of D2.B10-treated mice to that of wt healthy mice |  |  |  | not statistically significant |  |  | comparable to that of Givinostat 5 e 10 mg/kg
